Measured values as given in patent publication US20190367871A1, “EMBRYONIC STEM CELL MEDIA AND CULTURE” (YISSUM RESEARCH DEVELOPMENT COMPANY OF THE HEBREW …, priority 2018, published 2019).
One block for each compound: values may come before it.

How the values were obtained:
diploid hESCs = test: Growth curve of hESCs (CellTiter-Glo luminescent cell viability assay); format: cell-based, human
Method: All genes were targeted with commercial pooled siRNAs to increase the specificity of the knockdown. esiRNAs for SALL4, DSCC1 and SEPHS1 and the control esiRNA for Renilla luciferase were obtained from Sigma (cat. nos. EHU037061, EHU021301, EHU107861 and EHURLUC, respectively). siRNA for VRTN was obtained from GE Healthcare Dharmacon (cat. no. L-021159-02-0005). Briefly, 30-50 nM siRNA was mixed with 0.14 μl of DharmaFECT 1 transfection reagent (GE Healthcare Dharmacon) in Opti-MEM I reduced serum medium (Thermo Fisher Scientific) for 30 min. The transfection mix was added on a matrigel-coated well of a 96-well plate and 3,000 hESCs were plated on the transfection mix in the presence of mTeSR 1 medium. The cells were subsequently grown for 3-4 days and the mTeSR 1 medium was replaced every 24 h. Cell viability was assessed by a CellTiter-Glo luminescent cell viability assay according to the manufacturer's instructions (Promega). Luminescence reads for the target genes were normalized to control siRNA conditions, and the replicate experiments were averaged. For growth curves of IGF1-treated and control hESCs, cells were plated in matrigel-coated wells with equal numbers and their density was measured for four consecutive days with CellTiter-Glo luminescent cell viability assay (Promega). The density measured one day after plating was considered Day 0, after which cells were switched to MEF-conditioned medium containing 100 ng ml^−1 IGF1. Every day was normalized to Day 0 and replicate experiments were averaged.

[1] = tested on: human foreskin fibroblasts; test: Growth of fibroblasts under mTOR inhibitor treatment (CellTiter-Glo); format: cell-based; conditions: two days of treatment, low nanomolar concentrations
[2] = target: Bax (BCL2 associated X, apoptosis regulator) (human) (UniProt Q07812); test: cell-based or functional assay
Sequence of UniProt Q07812 (Q07812 whole entry): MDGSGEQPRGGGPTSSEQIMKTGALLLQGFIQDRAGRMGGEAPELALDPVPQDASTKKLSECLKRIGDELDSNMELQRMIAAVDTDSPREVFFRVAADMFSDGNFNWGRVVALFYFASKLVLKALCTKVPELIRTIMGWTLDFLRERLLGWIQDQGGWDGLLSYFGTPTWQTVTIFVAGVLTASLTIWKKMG

hESCs [3] = test: Effect of Bax inhibition on hESC growth (CellTiter-Glo luminescence); format: cell-based, human; conditions: 100 or 200 uM, after 24 hours, vs 0 uM
Method: Next, we examined the effect of Bax inhibition on hESC growth. hESCs were treated with either 0, 100, or 200 uM of BAX-inhibiting peptide V5 (BIP-V5, Sigma). At time point zero when the peptide was added CellTiter-Glo reagent was also added to the cells and luminescence was measured with a plate reader. Bax inhibition increased the relative growth of the hESCs by 15-25% after 24 hours (FIG. 13).

hESCs [4] = test: Apoptosis assay (Annexin V / PI flow cytometry); format: cell-based, human; conditions: IGF1-treated vs control diploid hESCs
Description: hESCs were trypsinized gently with TrypLE Select. Apoptotic cells were labelled with Annexin V and propidium iodide (PI) using the MEBCYTO Apoptosis Kit according to the manufacturer's instructions (MBL). Labelled cells were filtered through a 70 μm cell strainer and analysed in BD FACSAria III for the proportion of annexin V-positive cells.

hESCs [5] = test: Cell-cycle profile by PI staining and flow cytometry; format: cell-based, human; conditions: IGF1-treated vs control diploid hESCs
Method: PI staining was performed as described in Sagi, I., Egli, D. & Benvenisty, N. Identification and propagation of haploid human pluripotent stem cells. Nat. Protoc. 11, 2274-2286 (2016). Briefly, hESCs were trypsinized with TrypLE Select and fixed with cold methanol (4° C.). Fixed cells were treated with 200 μg ml^−1 RNase A (Sigma) for 30 min and stained with 50 μg ml^−1 PI for 5 min. Stained cells were filtered through a 70 μm cell strainer and analysed in BD FACSAria III for their cell-cycle profile.

hESCs [6] = test: TRA-1-60 immunocytochemistry (flow cytometry of TRA-1-60-positive pluripotent cells); format: cell-based, human; conditions: IGF1-treated vs control diploid hESCs
Method: hESCs were trypsinized with TrypLE Select. Cells were collected in cold PBS containing 10% KSR, centrifuged at 300 g for 5 min and resuspended in 200 μl PBS containing 10% KSR. PE-conjugated mouse anti-human TRA-1-60 antibody (1:40, BD Biosciences) was then incubated with the cells for 30 min at 4° C. Cells were washed with PBS containing 10% KSR twice, centrifuged at 300 g at 4° C. and resuspended in PBS with 10% KSR. Immunolabelled cells were filtered through a 70 μm cell strainer and analysed in BD FACSAria III for the proportion of TRA-1-60-positive cells.

Compound: CCC(=O)N1CCN(c2ccc(-n3c(=O)ccc4cnc5ccc(-c6cnc7ccccc7c6)cc5c43)cc2C(F)(F)F)CC1 [Torin 1, reference compound]
growth and survival of hESCs (diploid hESCs; two days of treatment, low nanomolar concentrations): completely abolished
growth inhibition of fibroblasts [1]: up to 60%

relative growth of hESCs (CellTiter-Glo luminescence) after 24 hours [2]: 15 to 25%
Compound: BAX-inhibiting peptide V5

Compound: BAX-inhibiting peptide V5 [BIP-V5]
increase in relative growth of hESCs (hESCs [3]): 15-25%

Compound: insulin like growth factor 1 [IGF1]
growth rate of diploid hESCs (diploid hESCs; IGF1 100 ng ml^-1 in MEF-conditioned medium, especially low levels of KSR, vs untreated control): significantly increased the growth rate
rescue of rapamycin growth-inhibition of hESCs (diploid hESCs; rapamycin + IGF1 vs rapamycin alone): failed to rescue
percentage of apoptotic hESCs (hESCs [4]): significantly decreases the percentage of apoptotic hESCs
cell-cycle (cells in G2/M phase) (hESCs [5]): not affecting
differentiation dynamics (TRA-1-60+ pluripotent cells) (hESCs [6]): not affecting
